From ChEMBL document CHEMBL1129553, “Synthesis and pharmacology of highly selective carboxy and phosphono isoxazole amino acid AMPA receptor antagonists” (J Med Chem, 1996)

Columns and labels:
[1] = target: Glutamate receptor ionotropic, kainate; assay: In vitro inhibition of [3H]KAIN binding to Ionotropic glutamate receptor kainate.; type: protein-complex assay
[2] = target: Glutamate NMDA receptor; assay: In vitro inhibition of [3H]CPP binding to NMDA receptor.; type: protein-complex assay
[3] = target: T1, Glutamate receptor ionotropic, AMPA (Rattus norvegicus, UniProt P19490+P19491+P19492+P19493); assay: In vitro inhibition of [3H]AMPA binding to Ionotropic glutamate receptor AMPA.; type: protein-complex assay
[4] = target: T1, Glutamate receptor ionotropic, AMPA; assay: In vitro inhibition of [3H]CNQX binding to Ionotropic glutamate receptor AMPA.; type: protein-complex assay
[5] = target: T1, Glutamate receptor ionotropic, AMPA; assay: Inhibition of AMPA induced electrophysiological responses in rat cortical slices.; type: functional
[6] = species on record: Rattus norvegicus; assay: Inhibitory activity against antagonism of AMPA induced responses in rat cortical slices; type: functional

Compound | IC50 [1] [µM] | IC50 [2] [µM] | IC50 [3] [µM] | IC50 [4] [µM] | IC50 [5] [µM] | IC50 [6] [µM] | Ki [5] [µM]
CC(C)(C)c1onc(OCC(=O)O)c1CC(N)C(=O)O (stereo unspecified) | > 100 | > 100 | 33 | 12 | 150 |  | 
CCCC(CCC)c1onc(OCC(=O)O)c1CC(N)C(=O)O (stereo unspecified) | > 100 | > 100 | > 100 | 63 | > 1000 |  | 
NC(Cc1c(OCC(=O)O)noc1-c1ccccc1)C(=O)O (stereo unspecified) | > 100 | > 100 | > 100 | > 100 | > 1000 |  | 
Cc1onc(OCC(=O)O)c1CC(N)C(=O)O (stereo unspecified) |  |  |  | 8 |  | 320 | 
CC(C)(C)Cc1onc(OCC(=O)O)c1CC(N)C(=O)O (stereo unspecified) | > 100 | > 100 | > 100 | > 100 | > 1000 |  | 
N#Cc1cc2c(cc1[N+](=O)[O-])=NC(=O)C(=O)N=2 | 1.5 | 25 |  |  |  |  | 
CCCCc1onc(OCC(=O)O)c1CC(N)C(=O)O (stereo unspecified) | > 100 | > 100 | > 100 | 87 | > 1000 |  | 
NC(Cc1c(OCC(=O)O)noc1-c1cccs1)C(=O)O (stereo unspecified) | > 100 | > 100 | > 100 | > 100 | > 1000 |  | 

More lines, now with the values ahead:

IC50 [1] [µM] | IC50 [2] [µM] | IC50 [3] [µM] | IC50 [4] [µM] | IC50 [5] [µM] | IC50 [6] [µM] | Ki [5] [µM] | Compound
> 100 | > 100 |  |  |  |  |  | CC(C)(C)c1onc(OCP(=O)(O)O)c1CC(N)C(=O)O (stereo unspecified)
> 100 | > 100 | 31 | 6.9 | 60 |  |  | Cc1onc(OCP(=O)(O)O)c1CC(N)C(=O)O (stereo unspecified)
> 100 | > 100 | > 100 | > 100 | 360 |  |  | NC(Cc1c(OCP(=O)(O)O)noc1-c1cccs1)C(=O)O (stereo unspecified)
> 100 | > 100 | > 100 | 18 | 140 |  |  | CCCCc1onc(OCP(=O)(O)O)c1CC(N)C(=O)O (stereo unspecified)
> 100 | 22 | > 100 | > 100 |  |  |  | O=C(O)C1Cc2c(OCP(=O)(O)O)noc2CN1 (stereo unspecified)
> 100 |  | > 100 |  | 350 |  |  | CCCC(CCC)c1onc(OCP(=O)(O)O)c1CC(N)C(=O)O (stereo unspecified)
> 100 | > 100 | > 100 | > 100 | > 1000 |  |  | NC(Cc1cc(OCC(=O)O)no1)C(=O)O (stereo unspecified)
 | 0.05 | > 100 |  |  |  | 1.6 | O=C(O)[C@H]1CN(CCCP(=O)(O)O)CCN1
> 100 | > 100 | > 100 | > 100 | > 1000 |  |  | NC(Cc1cc(OCP(=O)(O)O)no1)C(=O)O (stereo unspecified)
> 100 | > 100 | > 100 | 35 | > 1000 |  |  | CC(C)(C)Cc1onc(OCP(=O)(O)O)c1CC(N)C(=O)O (stereo unspecified)
> 100 | > 100 | > 100 | > 100 | > 1000 |  |  | NC(Cc1c(OCP(=O)(O)O)noc1-c1ccccc1)C(=O)O (stereo unspecified)
